Legend:
Assay type in all cases: cell-based
[1] = target: T1, Sodium channel protein type 2 subunit alpha (Homo sapiens, UniProt Q99250); assay: Inhibition of human Nav1.2 expressed in HEK293 cells assessed as test to control ratio at 1 uM measured after 5 mins by whole cell voltage clamp electrophysiological analysis
[2] = target: T1, Sodium channel protein type 2 subunit alpha; assay: Inhibition of human Nav1.2 expressed in HEK293 cells assessed as test to control ratio at 10 uM measured after 5 mins by whole cell voltage clamp electrophysiological analysis
[3] = target: T1, Sodium channel protein type 2 subunit alpha; assay: Inhibition of human Nav1.2 expressed in HEK293 cells assessed as test to control ratio at 0.1 uM measured after 5 mins by whole cell voltage clamp electrophysiological analysis

T1 sequence (Q99250 whole entry, looked up): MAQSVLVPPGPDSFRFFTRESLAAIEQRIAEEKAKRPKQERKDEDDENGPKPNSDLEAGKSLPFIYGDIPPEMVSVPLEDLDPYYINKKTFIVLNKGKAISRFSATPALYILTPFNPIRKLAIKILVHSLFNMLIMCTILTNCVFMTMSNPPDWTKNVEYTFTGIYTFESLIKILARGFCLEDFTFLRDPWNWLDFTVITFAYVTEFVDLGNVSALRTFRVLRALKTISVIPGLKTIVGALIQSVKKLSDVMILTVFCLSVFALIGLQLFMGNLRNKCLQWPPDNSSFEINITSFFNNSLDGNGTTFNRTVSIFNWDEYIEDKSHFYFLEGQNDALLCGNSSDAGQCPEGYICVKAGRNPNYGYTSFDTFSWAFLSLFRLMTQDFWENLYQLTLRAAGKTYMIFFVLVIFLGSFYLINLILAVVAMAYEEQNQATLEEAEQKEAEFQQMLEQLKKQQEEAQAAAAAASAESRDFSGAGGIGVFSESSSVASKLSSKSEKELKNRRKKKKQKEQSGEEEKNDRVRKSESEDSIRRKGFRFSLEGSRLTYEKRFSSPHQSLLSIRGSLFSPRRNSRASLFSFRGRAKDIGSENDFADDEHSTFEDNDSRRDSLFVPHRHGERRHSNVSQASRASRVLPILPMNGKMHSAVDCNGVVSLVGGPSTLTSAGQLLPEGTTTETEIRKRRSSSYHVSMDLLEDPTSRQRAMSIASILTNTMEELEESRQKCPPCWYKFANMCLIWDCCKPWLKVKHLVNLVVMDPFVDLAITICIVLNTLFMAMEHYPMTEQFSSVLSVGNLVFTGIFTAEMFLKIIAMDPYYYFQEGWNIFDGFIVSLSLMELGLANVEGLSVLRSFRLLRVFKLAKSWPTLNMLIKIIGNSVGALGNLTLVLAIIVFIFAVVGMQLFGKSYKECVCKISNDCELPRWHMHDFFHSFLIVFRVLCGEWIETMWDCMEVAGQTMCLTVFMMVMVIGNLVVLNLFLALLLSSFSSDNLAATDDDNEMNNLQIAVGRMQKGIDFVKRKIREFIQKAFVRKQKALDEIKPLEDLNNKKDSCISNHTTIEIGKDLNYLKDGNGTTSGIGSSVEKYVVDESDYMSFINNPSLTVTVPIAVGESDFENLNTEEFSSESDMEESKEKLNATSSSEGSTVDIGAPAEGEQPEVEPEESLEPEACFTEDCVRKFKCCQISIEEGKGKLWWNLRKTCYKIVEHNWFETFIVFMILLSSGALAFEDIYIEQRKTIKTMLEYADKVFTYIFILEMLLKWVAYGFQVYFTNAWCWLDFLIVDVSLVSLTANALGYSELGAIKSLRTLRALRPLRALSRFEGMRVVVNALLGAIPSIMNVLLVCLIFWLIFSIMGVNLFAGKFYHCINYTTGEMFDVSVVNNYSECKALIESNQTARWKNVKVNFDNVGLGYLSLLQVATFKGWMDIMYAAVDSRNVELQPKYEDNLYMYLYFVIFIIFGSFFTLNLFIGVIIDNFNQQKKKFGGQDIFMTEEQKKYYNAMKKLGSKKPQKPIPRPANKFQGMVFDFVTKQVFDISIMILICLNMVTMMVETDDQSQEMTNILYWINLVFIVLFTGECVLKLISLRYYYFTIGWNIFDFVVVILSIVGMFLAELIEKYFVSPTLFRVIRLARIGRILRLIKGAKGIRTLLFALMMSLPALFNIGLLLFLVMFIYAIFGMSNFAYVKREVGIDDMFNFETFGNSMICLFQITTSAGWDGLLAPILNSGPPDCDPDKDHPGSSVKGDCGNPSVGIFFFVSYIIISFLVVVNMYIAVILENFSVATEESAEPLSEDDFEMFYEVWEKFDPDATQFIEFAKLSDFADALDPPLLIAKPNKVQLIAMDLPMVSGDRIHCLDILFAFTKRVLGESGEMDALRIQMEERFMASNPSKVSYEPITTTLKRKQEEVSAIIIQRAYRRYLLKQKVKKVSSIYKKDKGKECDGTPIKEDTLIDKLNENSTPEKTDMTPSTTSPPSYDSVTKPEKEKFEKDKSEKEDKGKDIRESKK

SMILES | T/C [1] | T/C [2] | T/C [3]
COc1cccc(-c2cc(N3CCCc4cc(F)c(F)cc4C3)nc(N)n2)c1 | 0.65 | 0.43 | 
Cc1cccc(-c2cc(N3CCCc4ccccc4C3)nc(N)n2)c1 | 0.24 | 0.03 | 0.85
COc1cccc(-c2cc(N3CC4CC(C3)c3ccccc34)nc(NS(=O)(=O)c3ccc(C)cc3C)n2)c1 | 0.84 | 0.45 | 
COc1cccc(-c2cc(N3Cc4ccccc4C3)nc(N)n2)c1 |  | 0.75 | 
COc1cccc(-c2cc(N3CC4CC(C3)c3ccccc34)nc(NS(=O)(=O)c3ccc(F)cc3)n2)c1 | 0.56 | 0.28 | 
COc1cccc(-c2cc(NCCc3ccc(OC)c(OC)c3)nc(N)n2)c1 | 0.35 | 0.15 | 0.61
COc1cccc(-c2cc(N3CCc4nc(Cl)ccc4C3)nc(N)n2)c1 | 0.71 | 0.18 | 0.89
COc1cccc(-c2cc(N3CCCc4ccc(C)cc4C3)nc(OC)n2)c1 | 0.43 | 0.11 | 0.88
Nc1nc(-c2ccc3c(c2)CCO3)cc(N2CCCc3ccccc3C2)n1 | 0.82 | 0.07 | 
COc1cccc(-c2cc(N3CCCc4ccccc4C3)nc(NS(=O)(=O)c3ccc(Cl)cc3)n2)c1 |  | 0.65 | 
Nc1nc(-c2ccc(F)cc2)cc(N2CCCc3ccccc3C2)n1 | 0.46 | 0.18 | 0.9
COc1cccc(-c2cc(N3CCCc4ccc(C)cc4C3)nc(-c3ccccc3)n2)c1 |  | 0.91 | 
COc1cccc(-c2cc(N3CCCc4ccc(C)cc4C3)ncn2)c1 | 0.43 | 0.13 | 0.8
COc1cccc(-c2cc(N3CCCc4ccc(C)cc4C3)nc(C#N)n2)c1 |  | 0.86 | 
COc1cccc(-c2cc(N3CCC4(CCOCC4)C3)nc(N)n2)c1 | 0.94 | 0.57 | 0.97
COc1cccc(-c2cc(N3CCc4nc(C)sc4C3)nc(N)n2)c1 |  | 0.79 | 
COc1cccc(-c2cc(N3CCCc4ccccc4C3)nc(NS(=O)(=O)c3ccc(F)cc3)n2)c1 | 0.95 | 0.36 | 0.95

SMILES | T/C [1] | T/C [2] | T/C [3]
Nc1nc(-c2cccc(OC(F)(F)F)c2)cc(N2CCCc3ccccc3C2)n1 | 0.81 | 0.07 | 
COc1cccc(-c2cc(N3CCC(C)c4ccccc4C3)nc(N)n2)c1 (centres undefined) | 0.12 | 0.11 | 0.95
COc1cccc(-c2cc(N3CC4CC(C3)c3ccccc34)nc(NS(=O)(=O)c3cccc(C)c3)n2)c1 | 0.68 | 0.33 | 
Nc1nc(-c2cccc3ccccc23)cc(N2CCCc3ccccc3C2)n1 | 0.85 | 0.08 | 
COc1cccc(-c2cc(N3CCCc4c(cc(OC)cc4OC)C3)nc(N)n2)c1 | 0.53 | 0.14 | 
COc1cccc(-c2cc(N3CCCc4ccc(OCc5ccccc5)cc4C3)nc(N)n2)c1 | 0.11 | 0.02 | 0.77
COc1cccc(-c2cc(NCCc3ccc4c(c3)OCO4)nc(N)n2)c1 | 0.34 | 0.05 | 0.86
Nc1nc(-c2ccc(Oc3ccccc3)cc2)cc(N2CCCc3ccccc3C2)n1 | 0.79 | 0.46 | 
COc1cccc(-c2cc(N3CCCc4ccc(C)cc4C3)nc(S(C)(=O)=O)n2)c1 |  | 0.81 | 
Nc1nc(-c2ccc(OC3CCCCO3)cc2)cc(N2CCCc3ccccc3C2)n1 (centres undefined) | 0.76 | 0.14 | 
COc1cccc(-c2cc(N3CCCc4ccc(C)cc4C3)nc(SC)n2)c1 |  | 0.66 | 
CN1C[C@H](CNC(=O)OCc2ccccc2)C[C@@H]2c3cccc4c3c(cn4C)C[C@H]21 |  | 0.01 | 
Nc1nc(-c2cccn2C2CCCCO2)cc(N2CCCc3ccccc3C2)n1 (centres undefined) | 0.77 | 0.19 | 
Nc1nc(-c2ccc3c(c2)OCCC3)cc(N2CCCc3ccccc3C2)n1 | 0.72 | 0.07 | 
COc1cccc(-c2cc(N3CC4CC(C3)c3ccccc34)nc(NS(=O)(=O)c3ccc(C)cc3)n2)c1 | 0.71 | 0.31 | 
CC(C)Oc1ccc(-c2cc(N3CCCc4ccccc4C3)nc(N)n2)cc1 | 0.87 | 0.37 | 
